# Test results published in patent US10905651B1, “Zeinmersome nanocarriers for drug delivery to the liver” (King Abdulaziz University, priority 2020, dated 2021).
# Legend:
# [1] = In vitro diffusion studies (Franz diffusion cell); assay type: physicochemical; conditions: within a 4-hour time period; 0.1 μm nylon membrane, buffer pH 7.0 with Tween 20 0.5% w/v
# Description: The formula characterization was assessed by examining its diffusion pattern. An automated Franz diffusion cell apparatus (MicroettePlus; Hanson Research, Chatsworth, Calif., US) with a diffusion area of 1.76 cm^2 was utilized to examine the diffusion of OM from the prepared formula as described previously (Ahmed et al., 2019. Internat J Pharmaceu 570: 118657). A 0.1 μm nylon diffusion membrane and a buffer (pH 7.0) containing Tween 20 (0.5% w/v) were used, and this was stirred at 400 rpm. The aliquots were analyzed for OM concentration by HPLC as previously reported. The samples were collected at 0.5, 1, 2, 4, 8, 12, 24 and 48 h.
# [2] = system: TAA-induced hepatic fibrosis rats; assay: Assessment of liver function (plasma ALT and AST) in TAA-induced hepatic fibrosis rats; assay type: in vivo, rat; conditions: mean ± SEM, n=8
# Description: The protocol for this study was approved by the King Abdulaziz University Research Ethics Committee and adhered to the international guidelines for the Care and Use of Laboratory Animals. Adult Sprague-Dawley male rats weighing 200-250 g were obtained from King Fahd Research Center and housed in cages at 20-22° C. room temperature in a 12 h light-dark cycle. After one week of acclimatization, rats were used in the experiment. Food and water were available ad libitum. Rats were given freshly prepared TAA (0.9% w/v in saline solution, 200 mg/kg, ip) twice weekly for eight weeks. A normal control (NC) group of rats (n=8) received injections of the vehicle twice weekly for eight weeks. The TAA-treated rats were randomly assigned to groups (n=8), including a test group for each dosage of a free drug (not encapsulated in ZMS), each dosage of zeinmersomes encapsulating the drug, and a positive control group (PC) having hepatic fibrosis but receiving a vehicle-only treatment instead of a drug treatment. Five groups of rats (n=8) were given freshly prepared TAA (0.9% w/v in saline solution, 200 mg/kg, ip) twice weekly for eight weeks and a normal control (NC) group received vehicle injections, as described in Example 4. The five TAA groups included a positive control group (PC, untreated) and four groups treated with low and high doses (2 and 4 mg/kg/day) of OM as raw drug (OL & OH, respectively) and the same low and high doses (2 and 4 mg/kg/day) of OM formulated as zeinmersomes (OLZMS & OHZMS, respectively). The OM standard drug was suspended in distilled water containing 0.25% w/v carboxymethyl cellulose. The doses were given by oral gavage once daily for two months. […] At the end of treatment duration, blood samples were withdrawn from the retro-orbital plexus of the rats under light ether anesthesia. Plasma was separated and kept at −80° C. until analysis. Then, the rats were sacrificed by cervical dislocation under ether anesthesia. Liver and duodenum were isolated and parts of each were kept in 10% formalin-saline for histopathological examination. Other portions of liver tissue were homogenized. The plasma levels of ALT and AST and the homogenate levels of IL-6, reduced glutathione (GSH), TNF-α, malondialdehyde (MDA), and protein content were measured using ELISA kits (MyBioSource, Inc. CA, USA). In addition, the concentrations of olmesartan in plasma and liver homogenate were measured by HPLC/MS. Data are expressed as mean±SEM Comparisons between different groups were carried out using one-way analysis of variance (ANOVA) followed by Bonferroni test for multiple comparisons. […] The levels of ALT and AST were measured by using ELISA commercially available kits according to the manufacturer's protocol.
# [3] = cited from earlier work
# fructose-fed rats = conditions: 0.1 mg/kg/day; cited from earlier work
# AT1 receptor = target: T1, AT1 receptor (Homo sapiens, UniProt P30556); conditions: cited from earlier work
# T1 sequence (P30556 1-359): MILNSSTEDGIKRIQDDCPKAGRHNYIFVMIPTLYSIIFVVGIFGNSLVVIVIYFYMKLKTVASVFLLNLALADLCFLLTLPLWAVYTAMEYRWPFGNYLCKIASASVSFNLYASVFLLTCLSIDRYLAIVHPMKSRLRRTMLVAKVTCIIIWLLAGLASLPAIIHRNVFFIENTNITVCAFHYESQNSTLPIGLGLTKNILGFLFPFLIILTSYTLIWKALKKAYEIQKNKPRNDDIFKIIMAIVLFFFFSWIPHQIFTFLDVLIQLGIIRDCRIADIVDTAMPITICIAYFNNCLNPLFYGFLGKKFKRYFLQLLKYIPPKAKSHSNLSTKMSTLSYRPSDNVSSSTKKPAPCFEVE
# [4] = high dose 4 mg/kg/day oral gavage once daily for two months
# [5] = low dose 2 mg/kg/day oral gavage once daily for two months
smiles,measurement,setting,value
"CCCc1nc(C(C)(C)O)c(C(=O)OCc2oc(=O)oc2C)n1Cc1ccc(-c2ccccc2-c2nnn[nH]2)cc1 [OM, (5-methyl-2-oxo-1,3-dioxol-4-yl)methyl 5-(2-hydroxypropan-2-yl)-2-propyl-3-[[4-[2-(2H-tetrazol-5-yl)phenyl]phenyl]methyl]imidazole-4-carboxylate]",diffusion of OM (percentage permeated),[1],~97.5±13.07%
same,plasma ALT,[2]; [4],81.41 U/L
same,plasma AST,[2]; [4],169.00 U/L
same,plasma ALT,[2]; [5],114.88 U/L
same,plasma AST,[2]; [5],198.32 U/L
same,drug accumulation,[3]; OM once daily for 10 days,did not result in drug accumulation
same,dose at which safe and well tolerated,[3]; Schwocho et al. 2001,up to 160 mg/day
same,time for plasma olmesartan to approach steady state,[3]; treatment with OM,5 days
same,TNF-α level,fructose-fed rats,reduced
same,cAMP level in the soleus muscle,fructose-fed rats,increased
same,AT1 receptor blockade,AT1 receptor,competitive and selective AT1 receptor blocker
